Assay results taken from article PMC12210654, “Palazestrant, a novel oral Complete Estrogen Receptor Antagonist (CERAN) and Selective Estrogen Receptor Degrader (SERD), in patients with ER+/HER2− advanced or metastatic breast cancer: phase 1/2 study results” (Breast Cancer Research : BCR, 2025).
Where “and” joins values, the source holds several entries; their conditions need not be identical. Equal entries are not always repeated. Entries after “also recorded” stand apart in the source; their conditions may differ. Where two headings read alike, the source gives them in different places.

Key:
[1] = test system: ER+/HER2− advanced or metastatic breast cancer; parameters: method as in ref 41 = [41]; 41. Lin NU, Borges VF, Patel MR, Okera M, Meisel J, Wesolowski R, et al. Results from the phase I/II study of OP-1250, an oral complete estrogen receptor (ER) antagonist (CERAN) and selective ER degra; details: cited from earlier work
[2] = test system: ER+/HER2− advanced or metastatic breast cancer; assay: Antitumor activity: RECIST v1.1 response, CBR, PFS, duration of treatment; assay type: in vivo, human
From the text: Key efficacy end points included assessment of clinical response according to RECIST v1.1; the clinical benefit rate (CBR), defined as the proportion of patients who achieved a complete response (CR), achieved a partial response (PR), or had stable disease (SD) for at least 24 weeks; and progression-free survival (PFS), defined as the time from the date of the first dose to disease progression or death. Biomarker assessments included changes from baseline in circulating tumor DNA (e.g., ESR1 variants) and tumor tissue biomarkers (ERα and Ki67).
All DLT analyses (phase 1a) were performed in patients enrolled in the study during cycle 1 and who either received 75% of the planned palazestrant doses or experienced a DLT during cycle 1. All PK analyses were performed in patients who received at least 1 dose of palazestrant and had adequate postbaseline PK samples for characterization of PK parameters. All safety analyses were performed and PFS assessed in patients who received at least 1 dose of palazestrant. Clinical response (CR or PR) was assessed in patients who received at least 1 cycle of palazestrant, had measurable disease at baseline, and had at least 1 postbaseline tumor assessment. CBR was assessed in patients who received at least 1 cycle of palazestrant, had at least 1 postbaseline tumor assessment, and started their first dose at least 24 weeks before data cutoff. Patients who discontinued study treatment without radiographic progression within 24 weeks from the first dose were not included in the CBR analysis. PK parameters were estimated using conventional noncompartmental methods. For CBR, estimates were accompanied by 2-sided 95% confidence intervals (95% CIs). For PFS, Kaplan–Meier analyses were used to determine medians, event-free rates, and 95% CIs. For all other outcomes, categorical data were analyzed using frequencies and percentages, and continuous data were analyzed using means (standard deviation) or medians (range), as appropriate.

[3] = Dose escalation (phase 1a): dose-limiting toxicity, MTD, RP2D; assay type: in vivo; details: once-daily oral doses of 30 to 300 mg/day
Experimental: Phase 1 of the study comprised a dose-escalation phase (1a) to identify the MTD using a rolling 6 patient dose-escalation design with 7 dose levels. Two doses of palazestrant (60 mg/day and 120 mg/day) were selected for the dose-expansion phase (1b) to further characterize the safety, PK, and preliminary antitumor activity of treatment and to establish the RP2D. Phase 2 further explored the safety and antitumor activity of palazestrant at the RP2D (120 mg/day) in patients with measurable disease (primary cohort), nonmeasurable evaluable disease (exploratory cohort), and central nervous system (CNS) metastases (exploratory cohort). […]
All DLT analyses (phase 1a) were performed in patients enrolled in the study during cycle 1 and who either received 75% of the planned palazestrant doses or experienced a DLT during cycle 1. […] All safety analyses were performed and PFS assessed in patients who received at least 1 dose of palazestrant. Clinical response (CR or PR) was assessed in patients who received at least 1 cycle of palazestrant, had measurable disease at baseline, and had at least 1 postbaseline tumor assessment. CBR was assessed in patients who received at least 1 cycle of palazestrant, had at least 1 postbaseline tumor assessment, and started their first dose at least 24 weeks before data cutoff. […]

ER = test system: ER; parameters: method as in PMID 38102750; details: cited from earlier work
[4] = second- or third-line subanalysis, cancers with ESR1 mutations
[5] = 60 mg/day, measurable disease (n = 26)
[6] = 120 mg/day, 66 patients with measurable disease
[7] = 120 mg/day, all patients (n = 86)
[8] = 120 mg/day, patients with ESR1 mutation at baseline (n = 36)

CCCN1CC(Oc2ccc([C@@H]3c4[nH]c5ccccc5c4C[C@@H](C)N3CC(C)(C)F)cc2)C1 [palazestrant, Palazestrant]
median PFS ([1]; 49 patients, second- or third-line therapy with or without prior chemotherapy): 7.2 months
CBR ([1]; 49 patients, second- or third-line therapy, overall): 48%
CBR [1, 4]: 59%
PFS [1, 4]: 7.3 months
best response observed in dose cohorts ([2]; 60 mg/day and 120 mg/day dose cohorts): Confirmed partial responses; also recorded: confirmed PR
clinical benefit rate (CBR) ([2]; 60 mg/day, 13 patients with cancers with ESR1 mutations): 23.1%
clinical benefit rate (CBR) ([2]; 60 mg/day, all evaluable patients (n = 26)): 19% and 19.2%
confirmed PRs [2, 5]: 7.7%
total PRs [2, 5]: 11.5%
unconfirmed PR [2, 5]: 3.8%
patients remaining on treatment for ≥ 1 year ([2]; 120 mg/day (n = 86)): 7.0%
patients with a > 30% reduction in tumor size ([2]; 120 mg/day, 8/64): 12.5%
patients with a reduction in tumor size (percentage change less than zero) ([2]; 120 mg/day, 25/64): 39.1%
patients remaining on treatment for ≥ 6 months ([2]; 120 mg/day, 32/86): 37.2%
confirmed PRs [2, 6]: 4.5%
confirmed PRs including one cPR after the data cutoff date [2, 6]: 6.0%
total PRs [2, 6]: 7.6%
unconfirmed PRs [2, 6]: 3.0%
clinical benefit rate (CBR) ([2]; 120 mg/day, all evaluable patients (n = 70)): 46% and 45.7%
6-month PFS rate [2, 7]: 39%
median progression-free survival (95% CI) [2, 7]: 4.8 months
CBR in patients who had a reduction in ESR1 mutations ([2]; 120 mg/day, ctDNA available, 8/11): 73%
CBR in patients who did not have a reduction in ESR1 mutations ([2]; 120 mg/day, ctDNA available, 8/32): 25%
6-month PFS rate [2, 8]: 47%
median progression-free survival (95% CI) [2, 8]: 5.6 months
clinical benefit rate (CBR) ([2]; 120 mg/day, patients with cancers with ESR1 mutations (n = 29)): 58.6%
maximum tolerated dose (MTD) [3]: not reached; also recorded: no MTD was identified
potency in vitro relative to imlunestrant (ER): greater potency in vitro
